Patent US20230248850A1, “GOLD MOLECULAR CLUSTERS AND METHODS OF USING SAME FOR NEAR-INFRARED IMAGING” (The Board of Trustees of the Leland Stanford Junior …, priority 2022, published 2023)
“Also recorded” adds a separate entry of the source.

Columns and labels:
serum proteins (FBS) = assay: in vitro; type: in vitro ADME; conditions: bovine
Experimental: Evaluated next were the serum protein binding capabilities of Au-GSH cluster and Au-PC conjugate with FBS and compared to that of ICG. Briefly, the clusters and ICG were incubated with FBS for 1 h at 37° C. (FIG. 12). Afterwards, the solutions were filtered using Amicon 50 kDa centrifuge filters (FIGS. 12A and 12B). Au clusters bound to serum proteins will not pass filter while free unbound clusters will be lost to the filtrate. The optical density (OD) of filtrate (in case of Au-GSH and Au-PC) and retentate (in case of ICG) at 808 nm were measured and the corresponding serum protein binding efficiencies were calculated (FIG. 12C). The schematics of the experiments, figures, and absorbance values of Au-GSH+FBS and Au-PC+FBS filtrates as well as ICG+FBS retentate can be found in FIG. 12. The serum protein binding efficiencies for Au-GSH cluster, Au-PC conjugate and ICG were calculated to be 2.7%, 1.74% and 94.5%, respectively.

Balb/c mice [1] = assay: In vivo NIR-II fluorescence imaging after intravenous injection; design: species or system mouse; conditions: i.v. injection, up to 24 h p.i.
Experimental: In vivo, the Au-GSH and Au-PC clusters dissolved in PBS were first intravenously (i.v.) administered to mice (5-7 weeks old female Balb/c, n=3 in each group) through tail-vein injection, imaged in the >1100 nm NIR-II window and compared side by side with the clinically approved ICG dye. The bladder NIR-II signals in mice rapidly lit up, at ˜3 min postinjection (p.i) (FIG. 2A, 2B ventral view), as a consequence of kidney drainage for fast renal clearance (dorsal/lateral view images in FIGS. 13A and 14A, respectively).
(§1) The animal experiments and imaging in the NIR-II window were conducted in a two-dimensional, water-cooled 640×512 InGaAs array (Ninox 640, Raptor Photonics). The clusters were excited by an 808-nm continuous-wave diode laser at a power density of 70 mW/cm^2. 1100 nm long-pass filter was used in all the imaging experiments unless stated otherwise. The fluorescent probes were administered through tail vein (intravenous, i.v.), tail base (subcutaneous, s.c.) and (peri)intratumoral (i.t.). NIR-II fluorescence images were recorded at 3 min, 10 min, 30 min, 1 h, 3 h, 6 h, 24 h, 48 h p.i.

[2] = test system: mice bearing syngeneic 4T1 murine breast tumors; assay: NIR-II lymph node imaging after intra-/peri-tumoral injection, 4T1 tumors; type: in vivo, mouse
Experimental: For lymph node imaging, intra-tumor/peri-tumor administration (i.t.) of Au-PC clusters to mice (5-7 weeks old female Balb/c, n=3 in each group) bearing syngeneic 4T1 murine breast tumors and CT26 colon tumors inoculated on hindlimbs was performed. Several doses of Au-PC probes, including 4× (˜1.2 mg, tumors on both hindlimbs), 1× (˜300 μg, tumor on the right hindlimb) and ⅓× (˜100 μg, tumor on the right hindlimb) were administered (FIG. 3A, FIGS. 16 and 17). The draining inguinal lymph nodes (iLN) started to show NIR-II emission of Au-PC within ˜1 min p.i. and reached high brightness within ˜3 min p.i. (FIG. 3A, FIG. 17 for 4T1; FIG. 12A for CT26 tumor). The LN signal persisted for over 1 h in the draining iLNs (FIG. 3A) after reaching peak intensity at ˜30 min p.i., with a LN/background signal ratio ˜5-10 (FIG. 3D, FIG. 12D). […] The signal completely disappeared after […] p.i. of the Au-PC probe. The Au-PC clusters afforded rapid and effective imaging/detection of the primary tier draining LNs with much weaker signals in higher tier nodes.
3-9-week-old BALB/c female mice (weight: 15-20 g) were purchased from Charles River. The mice were housed on a 12-hour light/12-hour dark at ambient temperature =20-25° C. and humidity=50-65% in Stanford University's Veterinary Service Center. The bedding, nesting material, food and water were provided by the Stanford VSC facility. Prior to each experiment, the mice were shaved using hair-removing lotion (Nair, Softening Baby Oil). For in vivo imaging, the mice were anaesthetized by 2.5% isoflurane and oxygen as a carrying gas at a flow rate of 2 L/min. Per animal care protocols, the mice were carefully monitored during the imaging process and postrecovery period. The experimental groups consisted of n=3 mice. […]
The animal experiments and imaging in the NIR-II window were conducted in a two-dimensional, water-cooled 640×512 InGaAs array (Ninox 640, Raptor Photonics). […] NIR-II fluorescence images were recorded at 3 min, 10 min, 30 min, 1 h, 3 h, 6 h, 24 h, 48 h p.i.

[3] = Excretion by ICP-MS after intra-tumoral injection; type: in vivo, mouse; conditions: i.t. injection
Experimental: The biodistribution of probes was analyzed 10 min, 30 min, 24 h or 48 h postadministration. The urine, feces and major organs including the liver, spleen, heart, lungs, and kidneys were collected and digested in nitric acid (68%) for 12 h. Afterwards, the solutions were heated to 150° C. in the digestion solution (nitric acid:hydrogen peroxide=4:1) until transparent and colorless solution was obtained. The concentration of gold in each sample was measured by ICP-MS (Thermo Scientific ICAP 6300 Duo View Spectrometer).

Balb/c mice [4] = assay: NIR-II lymph node imaging after subcutaneous injection at tail base; type: in vivo, mouse; conditions: s.c. tail base
Experimental: Investigated next was LN draining post subcutaneous (s.c.) injection of the three probes at the mouse tail base (FIG. 5) (5-7 weeks old female Balb/c, n=3 in each group). The Au-PC clusters within 3 min p.i. migrated to the lymphatic vessels connecting the injection site to the draining iLN (FIG. 5A and FIG. 23). Strong signals in the iLN were seen up to 1 h and decreased by ˜40% 2 h p.i. (FIG. 5D). […] In contrast, upon ICG administration (FIG. 5C), the fluorescent signal in iLN appeared 3 min p.i. but with an intensity much lower compared to that of Au-PC probe at the same time postinjection (FIG. 5F). After 2-3 h p.i. (or even later) ICG signal in the iLN reached peak intensity and persisted. […] The retention of ICG at the injection site persisted over an extended period of time (FIG. 5F) much longer than Au-PC. The Au-PC molecular clusters were also unique with little retention at subcutaneous injection sites among various nanomaterials (with well-coated hydrophilic layers such as PEG) including quantum dots (QDs), carbon nanotubes (CNTs) and organic NIR II dyes^67,68. The trapping of NIR-II probes at the injection site and staining it for weeks is undesirable due to potential long-term side effects.
as §1

CC1(C)C(/C=C/C=C/C=C/C=C2\N(CCCCS(=O)(=O)O)c3ccc4ccccc4c3C2(C)C)=[N+](CCCCS(=O)(=O)[O-])c2ccc3ccccc3c21 [ICG, indocyanine green]
fraction unbound at 1 h (serum proteins (FBS)): 0.055
NIR-II signal distribution and retention in organs (Balb/c mice [1]): strong NIR-II signals were observed in liver and intestine; also recorded: no significant ICG retention in major organs
signal at tumor injection site 24 h p.i. ([2]; i.t. injection): significant signals were still detected at the tumor injection sites
time of peak lymph node intensity ([2]; i.t. injection into 4T1 tumor): 2 to 3 h
LN/background (LN/B) signal ratio ([2]; i.t. injection, 4T1 tumors, at peak intensity): 4
excretion route [3]: liver excretory system
signal retention at 24 h p.i. (Balb/c mice [4]): significant signal still remained in the lymph node, at the injection site and in the liver
time fluorescent signal in iLN appeared (Balb/c mice [4]): 3 min
time of iLN signal peak (Balb/c mice [4]): 2 to 3 h
